Data on 89 compounds can be found in a melting point compilation (Tetko et al.; mined from patent text by program, amines drawn as free bases though some values may be those of a salt).

Take `CCCCCCC1c2sccc2CCN1CCNC(=O)c1ccc(NS(C)(=O)=O)cc1` (centres undefined): the melting point was 132 to 134 °C.

Regarding `O=C(O)c1ccccc1Sc1ccc(Cl)c(F)c1`, the melting point was in the range of 231 to 232 °C.

With `O=C(O)CCCCCN1C(=O)c2cccc([N+](=O)[O-])c2C1=O`, the melting point stood at 144 °C.

As to `Cn1ncc(C(=O)N2C[C@H]3C[C@@H]2CO3)c1C(=O)Nc1ccn2nc(-c3cccnc3)nc2c1`, the melting point was in the range of 272 to 273 °C.

Take `CCn1cc(C(=O)NC2CC2c2ccccc2)c(=O)c2cnc(N3CCCC3)nc21` (centres undefined): the melting point lay in the range of 199 to 201 °C.

The compound `CC(=O)NC[C@H]1CN(c2ccc(N3CCC(O)(C#N)CC3)c(F)c2)C(=O)O1` yielded a melting point of 99 to 100 °C.

`[N-]=[N+]=C(C(=O)CC1CC(=O)N1)C(=O)OCc1ccc([N+](=O)[O-])cc1` (centres undefined) gave a melting point of 114 to 116 °C.

`CC(C)(C)c1ccc(N)cn1`: the melting point was in the range of 61.5 to 62.7 °C.

`CN(CCCc1ccccc1)[C@H]1CC[C@H](c2ccc([N+](=O)[O-])cc2)CC1` displayed a melting point of 55 to 56 °C.

In turn, `Oc1ccccc1Nc1nccc(-c2cccnc2)n1` gave a melting point of 166 to 169 °C.

Regarding `CCCCC(F)c1cc(=O)[nH]cn1` (centres undefined), the melting point stood at 148 °C.

Take `Nc1cnc2c(F)c(Cl)c(F)cc2c1`: the melting point was 270 °C.

On to `O=C(NC1CC1)c1ccc(-c2ccc(C(CC3CCOCC3)c3ccc(S(=O)(=O)C4CC4)cc3)[nH]2)nc1` (centres undefined), for which the melting point fell in the range of 134 to 136 °C.

For the compound `CC(C)OC(=O)N1c2cncnc2NC(=O)C1C` (racemic), the melting point fell in the range of 160 to 162 °C.

Take `O=C(O)c1cc(-n2c(=O)cc(C(F)(F)F)[nH]c2=O)ccc1Cl`: the melting point lay within 311 to 312 °C.

The compound `CCCC(=O)N(Cc1ccc(OC(F)(F)F)cc1)c1cc(Cl)cc(-c2nnn[nH]2)c1` yielded a melting point of 179 °C.

Turning to `NS(=O)(=O)c1cc2[nH]c(CCCCc3ccccc3)nc2cc1Cl`, the melting point fell in the range of 176 to 180 °C.

In the case of `CN(O)C(=O)NCCCCCCCOCc1ccccc1`, the melting point lay in the range of 69 to 70.5 °C.

Turning to `CCc1nc2c(cnn2CC)c(NC2CCOCC2)c1CNC(=O)c1cc(C)cc(C(=O)NCc2ccc(C)c(Br)c2)c1`, the melting point was in the range of 117 to 119 °C.

In the case of `CC(C)(C)OC(=O)N1CCN(c2ccc(O)c(C=O)c2)CC1`, the melting point was 84 to 86 °C.

`CC(C)(C(=O)Nc1cccc(Cl)c1)N1OCC(CI)=C(c2ccccc2)C1=O` returned a melting point of 135 to 137 °C.

For the compound `C[C@H]1C=CC2=C[C@@H](O)C[C@H](OC(=O)C(C)(C)Oc3ccc(F)cc3)[C@@H]2[C@H]1CC[C@@H]1C[C@@H](O)CC(=O)O1`, the melting point is 142 to 145 °C.

Compound `CCc1ccc(Cc2cc(C(=O)OC)ccc2O)cc1` gave a melting point of 134 to 137 °C.

Compound `C=C(CCCCCCCCC)C(N)=O` returned a melting point of 80 to 81 °C.

For `CCNC(Cc1ccc(O)cc1)C(=O)OCC` (centres undefined), the melting point lay in the range of 87 to 89 °C.

With `CC(C)N1C(=O)NC(c2ccc3c(c2)CCO3)c2cc3c(cc21)OCO3` (centres undefined), the melting point was in the range of 183 to 185 °C.

Compound `COC(C)=CC(=O)Nc1ccccc1C` had a melting point of 101 °C.

The compound `CCCOc1ccc(-c2cncn2-c2ccc(S(C)(=O)=O)cc2)cc1` yielded a melting point of 167 to 169 °C.

`OCc1nnc(-c2ccc3occ(-c4cccc(OC(F)(F)F)c4)c3c2)o1` came in with a melting point of 158 to 159 °C.

`CCCCCCCCCCCCc1cc2c(s1)NC(=O)CN=C2c1ccccc1Cl` yielded a melting point of 119 to 121 °C.

`C=CCc1c([N+](=O)[O-])ccc2c1OC(CO)CO2` (centres undefined): the melting point amounted to 67 °C.

The compound `Cc1[nH]cnc1CCCCNC(=N)N` gave a melting point of 152 to 154 °C.

`CCOC(=O)c1cnc2c(N=C3C(=O)OC(C)(C)OC3=O)cccc2c1`: the melting point was 228 to 231 °C.

In the case of `NC(=O)Cc1ccc(CCCOCCCCCCNCC(O)c2cc(Cl)c(N)c(Cl)c2)cc1` (centres undefined), the melting point lay within 104 to 106 °C.

In the case of `FC(F)Oc1ccc2c(Cc3c(Cl)cncc3Cl)nnc(-n3cncn3)c2c1`, the melting point lay in the range of 220 to 224 °C.

Turning to `CCCN1C(=O)CN=C(c2cccc(C(F)(F)F)c2)c2cc(OC)c(OC)cc21`, the melting point was 135 to 137 °C.

In turn, `CN(C)CCOc1ccc(CN2C(=O)C3(COc4cc5c(cc43)OCCO5)c3ccccc32)cc1` (centres undefined) came in with a melting point of 77 to 79 °C.

`NC(=O)c1cc(COc2nnc(Nc3ccc(Cl)cc3)c3ccsc23)ccn1` came in with a melting point of 233 °C.

For `OC1CCCNC1CN1CCCC1` (centres undefined), the melting point was 45 to 50 °C.

Compound `CC1(C)Oc2ccc(Br)cc2C(Oc2ccc(O)nn2)C1(C)O` (centres undefined) came in with a melting point of 242 °C.

Consider `CCc1cc(S(=O)(=O)c2ccc(N)cc2)cc(N2CCCC2)n1`, for which the melting point was 154 to 155 °C.

With `OCC1OC(n2cnc3c(Nc4ccccc4)ccnc32)C(O)C1O` (centres undefined), the melting point stood at 189 °C.

`CCC(=O)Oc1cc(OC)cc(OC)c1C(=O)C=Cc1ccc(Cl)cc1` yielded a melting point of 136 °C.

For the compound `COCCOc1ccc(CN2C(=O)C3(COc4cc5c(cc43)OCCO5)c3ccccc32)cc1` (centres undefined), the melting point was in the range of 124 to 125 °C.

Compound `CCn1c2ccccc2c2cc(Nc3nccc(-c4ccc(N5CCNCC5)nc4)n3)ccc21` showed a melting point of 131 to 137 °C.

Consider `COc1ccccc1N1CCN(CCNc2ccccc2C(N)=O)CC1`, for which the melting point was in the range of 134 to 136 °C.

As for `CS(=O)(=O)c1ccc(C2=C(c3ccc(F)c(Cl)c3)CCC2)cc1`, the melting point lay within 87.5 to 88.5 °C.

In turn, `CC(NC(=O)OCc1ccccc1)C(=O)N1CC(=O)NC1(C)C` (centres undefined) displayed a melting point of 170 to 171 °C.

With `COc1nccnc1NS(=O)(=O)c1cccc(F)c1`, the melting point is 142 to 143 °C.

Compound `O=C(Nc1ncnc2c1ncn2C1OC(CO)C(O)C1O)c1ccccc1` (centres undefined) showed a melting point of 151 to 153 °C.

`O=Cc1cc(O)c(O)c(C(F)(F)F)c1`: the melting point was in the range of 188 to 192 °C.

Turning to `N#Cc1cc(C#N)cc(C=O)c1`, the melting point was in the range of 203 to 204 °C.

Consider `Cc1scnc1-c1cc(C(C)(C)C)c(O)c(C(C)(C)C)c1`, for which the melting point fell in the range of 128 to 130 °C.

For `C[C@H](O)CNc1nc(Oc2ccc(F)cc2F)cc2[nH]nc(-c3ccccc3Cl)c12`, the melting point lay within 171 to 172 °C.

Regarding `C[C@@H](n1cnc2cc(Cl)ccc2c1=O)[C@](O)(Cn1cncn1)c1ccc(Cl)cc1Cl`, the melting point fell in the range of 144 to 146 °C.

Turning to `CCN(CC)C(=O)n1nc(NC)n(C)c1=O`, the melting point was in the range of 83 to 85 °C.

With `CCCCCC(C)Oc1cc(O)c2c(c1)OC(C)(C)C1CCC(=O)C=C21` (centres undefined), the melting point was 185 to 189 °C.

The compound `CCCCCCCCCCCCCCc1ccc(OCC(CO)OCc2ccccc2)c(CCCCCC)c1` (centres undefined) yielded a melting point of 32 to 33 °C.

The compound `Cc1cccc(O)c1S(N)(=O)=O` returned a melting point of 126 °C.

Compound `O=Cc1cnc(-c2ccc(C(CC3CCOCC3)c3ccc(S(=O)(=O)C4CC4)cc3)[nH]2)s1` (centres undefined) had a melting point of 175 to 176 °C.

In turn, `CCCc1nn(C)c2c(=O)[nH]cnc12` returned a melting point of 199 to 200 °C.

Take `Cc1ccccc1-c1c(N)c(=O)oc2cc3c(cc12)CCC3`: the melting point was 275 to 276 °C.

As to `CCCN(Cc1ccc(-c2ccccc2-c2nnn[nH]2)cc1)c1nc(C)nnc1C(=O)OCC`, the melting point fell in the range of 120 to 122 °C.

As to `COC(=O)Nc1cccc(C)c1CNc1cccn2c(C)c(C)nc12`, the melting point lay within 136 to 138 °C.

Compound `Nc1nc2ccccc2c2c1ncn2CCCCNC(=O)[C@@H]1C[C@H]1c1ccccc1` (relative stereo) displayed a melting point of 77 °C.

As for `CCN1c2ncc(CC(=O)c3ccncc3)cc2C(=O)N(C)c2ccc(Cl)nc21`, the melting point came to 154 °C.

`FC(F)(F)c1ccc(-c2cc(C(F)(F)F)cc(Br)n2)cc1` had a melting point of 35 to 37 °C.

`CN1C(=O)COc2cc(S(=O)Cc3ccccc3)ccc21` (centres undefined): the melting point was 133 to 135 °C.

`CC(C)(C)OC(=O)NCCNC(=O)Nc1ccccc1C(=O)NC1CCN(C(c2ccccc2)c2ccccc2)CC1` showed a melting point of 226 to 228 °C.

`Cc1ccc(-c2cc3cc(C4=NNC(=O)CC4)ccc3[nH]2)cc1` returned a melting point of 266 to 268 °C.

In turn, `C[Si](C)(C)OCCOC(=O)c1ccccc1S(N)(=O)=O` gave a melting point of 72 to 76 °C.

Consider `Clc1ccc([C@H]2C[C@@H]3CC[C@@H]4[C@H]2C(=NOCc2ccccc2)CN34)cc1Cl`, for which the melting point was 72 to 74 °C.

On to `c1ccc2c(c1)c1ccccc1n2-c1ccc2c(c1)Oc1ccc(-n3c4ccccc4c4ccccc43)cc1O2`, for which the melting point is 348 °C.

Compound `CCCCCCCCCN(CCC)CCC(O)(P(=O)(O)O)P(=O)(O)O` returned a melting point of 45 to 47 °C.

As for `COc1ccccc1Cc1cnc(NCCSCc2nc[nH]c2C)[nH]c1=O`, the melting point is 163 to 167 °C.

`Cc1cc(Oc2ccc(Cl)c(C(F)(F)F)c2)ncc1N`: the melting point lay within 105 to 107 °C.

Turning to `COc1cc(Nc2c(C#N)cnc3cc(/C=C/n4nccn4)sc23)c(Cl)cc1Cl`, the melting point lay in the range of 315 to 316 °C.

`C[Si](C)(C)c1ccc2c(c1)C(CN1CCCCC1)c1cc([Si](C)(C)C)ccc1-2`: the melting point was 107 to 108 °C.

For the compound `COc1cc2c(cc1OCc1ccccc1)CCN(Cc1cccc(OC)c1OC)C2`, the melting point was in the range of 106 to 107 °C.

Compound `Nc1cc[nH]c(=O)c1Cl` showed a melting point of 264 to 267 °C.

`O=C(O)c1cnn2c(C(F)(F)F)cc(-c3ccc(F)c(F)c3)nc12` displayed a melting point of 274 °C.

Compound `CNc1ccc(C2OC(C)(C)N=C2c2ccccc2)cc1` (centres undefined) gave a melting point of 138 to 139 °C.

Compound `COc1ncc(OC)c(NN)n1` showed a melting point of 115 to 117 °C.

Consider `Cc1cc(Cl)c([N+](=O)[O-])c(Cl)n1`, for which the melting point was in the range of 69 to 70 °C.

With `N#CC(=NO)C(=O)c1ccccc1`, the melting point was 117 to 119 °C.

In turn, `CC(=O)NCC1CN(c2ccc(N3CCN(c4nc5ccc(F)cc5o4)CC3)c(F)c2)C(=O)O1` (centres undefined) showed a melting point of 233 to 234 °C.

Consider `O=c1oc2ccc(Cc3ccccc3)cc2c(O)c1CCCOc1ccccc1`, for which the melting point is 149 to 150 °C.

Regarding `CC(=O)Nc1c(C(=O)c2cc(CO)ccn2)[nH]c2cc(Cl)ccc12`, the melting point was 216 to 218 °C.

Regarding `CCCc1c(OCCCOc2ccc(C(=O)CCCCC(=O)O)cc2F)ccc(C(C)=O)c1O`, the melting point was 106 to 107 °C.
